Key:
[1] = In vitro therapeutic index was measured from IC50 to EC50 towards HIV-1 replication in cell growth in H9 lymphocytes; type: functional
H9 = test: Concentration that inhibits HIV-1 replication in cell growth in H9 lymphocytes; type: functional, cell-based; details: Homo sapiens

With `CC1(C)Oc2ccc3ccc(=O)oc3c2[C@@H](OC(=O)C23CCC(C)(C(=O)O2)C3(C)C)[C@H]1OC(=O)C12CCC(C)(C(=O)O1)C2(C)C` (stereo partly specified) the TI [1] was 136719.

`CC1(C)Oc2ccc3c(=O)ccoc3c2[C@@H](OC(=O)C23CCC(C)(C(=O)O2)C3(C)C)[C@H]1OC(=O)C12CCC(C)(C(=O)O1)C2(C)C` (stereo partly specified) showed an EC50 (H9) of 0.000678 µM, an IC50 (H9) of 9.83 µM and a TI [1] of 14500.

In the case of `Cc1cn([C@H]2C[C@H](N=[N+]=[N-])[C@@H](CO)O2)c(=O)[nH]c1=O` [ZIDOVUDINE], the IC50 (H9) is reported as 500 µM and the TI [1] is reported as 11200.
